Test results reported in ChEMBL document CHEMBL5729768, “Azalactam compounds as HPK1 inhibitors” (2023).

Tests used:
[1] = target: T1, Serine/threonine-protein kinase D2 (Homo sapiens, UniProt Q9BZL6)
T1 sequence (Q9BZL6 whole entry): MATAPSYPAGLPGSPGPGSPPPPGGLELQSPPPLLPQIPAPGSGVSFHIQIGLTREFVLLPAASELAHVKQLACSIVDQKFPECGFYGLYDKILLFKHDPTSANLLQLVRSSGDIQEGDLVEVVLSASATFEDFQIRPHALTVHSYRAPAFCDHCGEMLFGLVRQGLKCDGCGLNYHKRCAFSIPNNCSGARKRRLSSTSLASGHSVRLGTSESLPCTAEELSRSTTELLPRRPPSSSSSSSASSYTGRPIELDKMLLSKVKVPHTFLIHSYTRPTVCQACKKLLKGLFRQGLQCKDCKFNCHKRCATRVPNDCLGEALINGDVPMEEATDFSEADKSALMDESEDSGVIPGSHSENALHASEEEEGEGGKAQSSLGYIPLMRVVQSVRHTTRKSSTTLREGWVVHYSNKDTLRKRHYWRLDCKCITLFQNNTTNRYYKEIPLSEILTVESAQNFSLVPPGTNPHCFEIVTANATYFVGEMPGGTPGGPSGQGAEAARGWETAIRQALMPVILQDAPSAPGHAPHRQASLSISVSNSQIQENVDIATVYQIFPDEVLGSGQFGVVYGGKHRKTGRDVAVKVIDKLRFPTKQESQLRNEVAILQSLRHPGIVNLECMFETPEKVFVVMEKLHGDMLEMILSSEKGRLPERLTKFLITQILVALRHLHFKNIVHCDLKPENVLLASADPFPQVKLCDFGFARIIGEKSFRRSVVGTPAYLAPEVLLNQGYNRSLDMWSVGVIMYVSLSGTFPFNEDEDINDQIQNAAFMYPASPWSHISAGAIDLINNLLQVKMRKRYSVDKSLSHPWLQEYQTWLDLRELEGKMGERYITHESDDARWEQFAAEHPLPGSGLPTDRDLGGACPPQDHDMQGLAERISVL

[2] = target: Ribosomal protein S6 kinase alpha-2 (Homo sapiens, UniProt Q15349)
Ribosomal protein S6 kinase alpha-2, sequence (Q15349 whole entry): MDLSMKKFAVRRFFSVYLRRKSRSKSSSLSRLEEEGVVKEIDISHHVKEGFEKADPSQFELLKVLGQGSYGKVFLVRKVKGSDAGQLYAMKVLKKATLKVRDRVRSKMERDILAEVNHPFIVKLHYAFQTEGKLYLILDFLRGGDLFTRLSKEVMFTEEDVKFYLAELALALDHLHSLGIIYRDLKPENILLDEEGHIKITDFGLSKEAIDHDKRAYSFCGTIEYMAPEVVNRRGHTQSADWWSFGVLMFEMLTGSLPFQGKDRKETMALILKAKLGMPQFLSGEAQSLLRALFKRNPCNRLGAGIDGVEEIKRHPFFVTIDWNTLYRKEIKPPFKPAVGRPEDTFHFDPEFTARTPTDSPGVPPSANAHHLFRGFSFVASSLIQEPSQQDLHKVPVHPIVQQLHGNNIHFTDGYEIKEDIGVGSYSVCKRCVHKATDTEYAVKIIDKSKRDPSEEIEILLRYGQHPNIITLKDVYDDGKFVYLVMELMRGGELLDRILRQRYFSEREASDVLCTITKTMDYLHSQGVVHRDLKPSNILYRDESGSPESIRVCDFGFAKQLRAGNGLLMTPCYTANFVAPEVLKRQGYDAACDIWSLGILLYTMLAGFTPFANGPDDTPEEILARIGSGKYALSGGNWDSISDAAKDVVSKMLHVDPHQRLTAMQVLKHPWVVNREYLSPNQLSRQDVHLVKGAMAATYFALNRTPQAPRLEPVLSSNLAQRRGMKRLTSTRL

Row | Structure (SMILES) | IC50 [1] | IC50 [2]
1 | COC[C@@H](N)c1nc(C2(C)CC2)cc2c1CN(c1cccc(-c3nnc4n3[C@@H](C)CC4)n1)C2=O | 942 nM | 48.6 nM
2 | CC[C@@H](N)c1nc(N(C)C(C)C)cc2c1CN(c1cccc(-c3nnc4n3[C@@H](C)CC4)n1)C2=O | 251 nM | 53.5 nM
